Laboratory results published in ChEMBL document CHEMBL5096191 (J Med Chem, 2021).

Assays:
Type in all cases: functional, cell-based
Cannabinoid receptor 2 [1] = molecular target: T1, Cannabinoid receptor 2 (Homo sapiens, UniProt P34972); assay: Partial agonist activity at wild type CB2 receptor (unknown origin) stably expressed in HEK293T assessed as decrease in forskolin induced cAMP level preincubated for 15 mins followed by forskolin addition incubated for 15 mins in presence of cannabidiol by HTRF assay relative to control; details: filed as partial agonist, time 30.0 min
T1 sequence (P34972 whole entry): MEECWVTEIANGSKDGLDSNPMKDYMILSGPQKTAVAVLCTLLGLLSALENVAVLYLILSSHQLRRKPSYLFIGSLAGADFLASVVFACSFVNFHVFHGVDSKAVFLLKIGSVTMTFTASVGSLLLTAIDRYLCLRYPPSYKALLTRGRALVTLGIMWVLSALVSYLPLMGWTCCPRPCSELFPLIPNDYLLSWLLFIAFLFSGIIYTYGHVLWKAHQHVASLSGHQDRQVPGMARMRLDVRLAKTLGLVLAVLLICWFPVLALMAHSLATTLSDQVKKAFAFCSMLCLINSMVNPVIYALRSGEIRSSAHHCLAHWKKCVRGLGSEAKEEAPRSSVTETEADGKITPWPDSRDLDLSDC

Cannabinoid receptor 2 [2] = molecular target: Cannabinoid receptor 2 (Homo sapiens, UniProt P34972, V36M); assay: Partial agonist activity at CBR2 V361.35M mutant (unknown origin) stably expressed in HEK293T assessed as decrease in forskolin induced cAMP level preincubated for 15 mins followed by forskolin addition incubated for 15 mins by HTRF assay
Chain of Cannabinoid receptor 2 (Homo sapiens, UniProt P34972, V36M) (P34972 whole entry V36M): as the sequence (P34972 whole entry) above, with V36M counted along it

[3] = test system: Cannabinoid receptor 2 (Homo sapiens), P34972 [V113M]; assay: Partial agonist activity at CBR2 V1133.32M mutant (unknown origin) expressed in HEK293T assessed as increase in ERK1/2 phosphorylation incubated for 7 mins in presence of cannabidiol by AlphaScreenSureFire method relative to control; details: filed as partial agonist
Chain of Cannabinoid receptor 2 (Homo sapiens), P34972 [V113M] (P34972 whole entry V113M): as the sequence (P34972 whole entry) above, with V113M counted along it

Cannabinoid receptor 2 [4] = molecular target: T1, Cannabinoid receptor 2; assay: Partial agonist activity at wild type CB2 receptor (unknown origin) expressed in HEK293T assessed as increase in picometer shifts of reflected light wavelengths in presence of cannabidiol by DMR assay
Cannabinoid receptor 2 [5] = molecular target: Cannabinoid receptor 2 (Homo sapiens, UniProt P34972, V113M); assay: Partial agonist activity at CBR2 V1133.32M mutant (unknown origin) expressed in HEK293T assessed as increase in picometer shifts of reflected light wavelengths in presence of cannabidiol by DMR assay
Chain of Cannabinoid receptor 2 (Homo sapiens, UniProt P34972, V113M) (P34972 whole entry V113M): as the sequence (P34972 whole entry) above, with V113M counted along it

**Q.** For `CCCC(C)(C)c1cc(O)c2c(c1)OC(C)(C)[C@@H]1CC=C(C)C[C@@H]21`, which Emax (Cannabinoid receptor 2 [1]) is on record?
**A.** Its Emax is 57.8%.

**Q.** What about the EC50 (Cannabinoid receptor 2 [2]) of the same compound?
**A.** The EC50 was 0.0126 µM.

**Q.** What about the Emax [3] of the same compound?
**A.** The Emax was 216%.

**Q.** And the EC50 (Cannabinoid receptor 2 [4])?
**A.** Its EC50 is 0.631 µM.

**Q.** What about the EC50 (Cannabinoid receptor 2 [5]) of the same compound?
**A.** The EC50 was 0.398 µM.
